According to US20070292908A1, “Method for Detecting Streptococcus Agalactiae Using Alpha-Glucosidase Activity” (BIOMERIEUX, priority 2004, published 2007):
Blank lines part the entries; values can stand above or below the compound they belong to.

Assays:
Streptococcus agalactiae [1] = test: Detection of Streptococcus agalactiae strains on reaction media containing an α-glucosidase enzymatic substrate; type: cell-based; details: substrate 0.1 g/l; for intensity (I) of coloration: arbitrary scale 0 to 4
Method: The reaction media were prepared by mixing heart-brain extract (4.84 g/l; Solabia), meat infusion (1.96 g/l; Solabia), biothione (1 g/l; Solabia), biotrypcase (7.2 g/l; Solabia), sodium carbonate (0.3 g/l; VWR), sodium pyruvate (2 g/l; Fluka), HEPES buffer (0.4 g/l; Sigma), lactalbumin peptone (2 g/l; DMV), glucose (1 g/l; Merck), American agar (2 g/l; Sobigel) and European agar (12 g/l; Roko).
The media were then poured into a Petri dish for subsequent inoculation with bacterial strains.
Eight Streptococcus agalactiae strains derived from the applicant's collection, suspended in physiological saline, were inoculated so as to give isolated colonies on each of the media. The dishes were then incubated at 37° C. for 48 hours. The colonies formed are examined visually after 18, 24 and more than 40 hours of incubation. The coloration of these colonies, the growth and also the intensity of this coloration were noted.
The results are given in table 1 below and are expressed: • in terms of growth (G) with the size being indicated in mm, • in terms of intensity (1) of coloration based on an arbitrary scale ranging from 0 to 4, 0 corresponding to an absence of activity and 4 corresponding to the presence of a very intense coloration, • in terms of color (Co) with T=turquoise, R=pink or red, Gr=green, Mg=magenta, • according to the incubation time in hours (T).

Streptococcus agalactiae [2] = test: Number of strains detected as a function of the concentration of α-glucosidase substrate; type: cell-based; details: positive when I≧0.6, 8 strains
Text: The above protocol was repeated, with the exception that the concentration of enzymatic substrate was varied.
Table 2 below gives the number of strains detected (considered to be positive when I≧0.6) as a function of the concentration of substrate.

[3] = strain 0008200, 18 h incubation
[4] = strain 0008200, 24 h incubation
[5] = strain 0008200, >40 h incubation
[6] = strain 0008206, 18 h incubation
[7] = strain 0008206, 24 h incubation
[8] = strain 0008206, >40 h incubation
[9] = strain 0101060, 18 h incubation
[10] = strain 0101060, 24 h incubation
[11] = strain 0101060, >40 h incubation
[12] = strain 7611003, 18 h incubation
[13] = strain 7611003, 24 h incubation
[14] = strain 7611003, >40 h incubation
[15] = strain 7701031, 18 h incubation
[16] = strain 7701031, 24 h incubation
[17] = strain 7701031, >40 h incubation
[18] = strain 7702055, 18 h incubation
[19] = strain 7702055, 24 h incubation
[20] = strain 7702055, >40 h incubation
[21] = strain 8709013, 18 h incubation
[22] = strain 8709013, 24 h incubation
[23] = strain 8709013, >40 h incubation
[24] = strain 8904053, 18 h incubation
[25] = strain 8904053, 24 h incubation
[26] = strain 8904053, >40 h incubation
[27] = substrate 100 mg/l, incubation 24 h
[28] = substrate 100 mg/l, incubation 48 h
[29] = substrate 200 mg/l, incubation 24 h
[30] = substrate 200 mg/l, incubation 48 h
[31] = substrate 300 mg/l, incubation 24 h
[32] = substrate 300 mg/l, incubation 48 h

- intensity (I) of coloration (Streptococcus agalactiae [1]; strain 0008200, 18 h): 0.1
- growth (G), size (Streptococcus agalactiae [1]; [3]): 0.5 mm
- intensity (I) of coloration (Streptococcus agalactiae [1]; strain 0008200, 24 h): 0.3
- growth (G), size (Streptococcus agalactiae [1]; [4]): 0.5 mm
- intensity (I) of coloration (Streptococcus agalactiae [1]; strain 0008200, >40 h): 0.5
- growth (G), size (Streptococcus agalactiae [1]; [5]): 0.5 mm
- intensity (I) of coloration (Streptococcus agalactiae [1]; strain 0008206, 18 h): 0.1
- growth (G), size (Streptococcus agalactiae [1]; [6]): 0.7 mm
- intensity (I) of coloration (Streptococcus agalactiae [1]; strain 0008206, 24 h): 0.3
- growth (G), size (Streptococcus agalactiae [1]; [7]): 0.8 mm
- intensity (I) of coloration (Streptococcus agalactiae [1]; strain 0008206, >40 h): 0.8
- growth (G), size (Streptococcus agalactiae [1]; [8]): 1.2 mm
- intensity (I) of coloration (Streptococcus agalactiae [1]; strain 0101060, 18 h): 0.3
- growth (G), size (Streptococcus agalactiae [1]; [9]): 0.5 mm
- intensity (I) of coloration (Streptococcus agalactiae [1]; strain 0101060, 24 h): 0.6
- growth (G), size (Streptococcus agalactiae [1]; [10]): 0.7 mm
- intensity (I) of coloration (Streptococcus agalactiae [1]; strain 0101060, >40 h): 2.3
- growth (G), size (Streptococcus agalactiae [1]; [11]): 0.8 mm
- intensity (I) of coloration (Streptococcus agalactiae [1]; strain 7611003, 18 h): 0.3
- growth (G), size (Streptococcus agalactiae [1]; [12]): 1 mm
- intensity (I) of coloration (Streptococcus agalactiae [1]; strain 7611003, 24 h): 0.6
- growth (G), size (Streptococcus agalactiae [1]; [13]): 1.3 mm
- intensity (I) of coloration (Streptococcus agalactiae [1]; strain 7611003, >40 h): 1.3
- growth (G), size (Streptococcus agalactiae [1]; [14]): 1.7 mm
- growth (G), size (Streptococcus agalactiae [1]; [15]): 0.5 mm
- growth (G), size (Streptococcus agalactiae [1]; [16]): 0.7 mm
- intensity (I) of coloration (Streptococcus agalactiae [1]; strain 7701031, >40 h): 0.5
- growth (G), size (Streptococcus agalactiae [1]; [17]): 1.2 mm
- intensity (I) of coloration (Streptococcus agalactiae [1]; strain 7702055, 18 h): 0.1
- growth (G), size (Streptococcus agalactiae [1]; [18]): 0.7 mm
- intensity (I) of coloration (Streptococcus agalactiae [1]; strain 7702055, 24 h): 0.1
- growth (G), size (Streptococcus agalactiae [1]; [19]): 1 mm
- intensity (I) of coloration (Streptococcus agalactiae [1]; strain 7702055, >40 h): 1
- growth (G), size (Streptococcus agalactiae [1]; [20]): 1.7 mm
- growth (G), size (Streptococcus agalactiae [1]; [21]): 0.4 mm
- growth (G), size (Streptococcus agalactiae [1]; [22]): 0.5 mm
- intensity (I) of coloration (Streptococcus agalactiae [1]; strain 8709013, >40 h): 0.5
- growth (G), size (Streptococcus agalactiae [1]; [23]): 0.7 mm
- intensity (I) of coloration (Streptococcus agalactiae [1]; strain 8904053, 18 h): 0.1
- growth (G), size (Streptococcus agalactiae [1]; [24]): 0.7 mm
- intensity (I) of coloration (Streptococcus agalactiae [1]; strain 8904053, 24 h): 0.3
- growth (G), size (Streptococcus agalactiae [1]; [25]): 0.7 mm
- intensity (I) of coloration (Streptococcus agalactiae [1]; strain 8904053, >40 h): 1
- growth (G), size (Streptococcus agalactiae [1]; [26]): 0.8 mm
- number of strains detected (Streptococcus agalactiae [2]; [27]): 1/8
- number of strains detected (Streptococcus agalactiae [2]; [28]): 7/8
- number of strains detected (Streptococcus agalactiae [2]; [29]): 3/8
- number of strains detected (Streptococcus agalactiae [2]; [30]): 8/8
- number of strains detected (Streptococcus agalactiae [2]; [31]): 6/8
- number of strains detected (Streptococcus agalactiae [2]; [32]): 8/8
Compound: OC[C@H]1O[C@H](Oc2c[nH]c3cc(Cl)ccc23)[C@H](O)[C@@H](O)[C@@H]1O [Rose-alpha-Glu, 6-chloro-3-indolyl-α-D-glucopyranoside]

Compound: 5-bromo-6-chloro-3-indolyl-α-D-glucopyranoside [Magenta-alpha-Glu]
- intensity (I) of coloration (Streptococcus agalactiae [1]; strain 0008200, 18 h): 0.5
- growth (G), size (Streptococcus agalactiae [1]; [3]): 0.5 mm
- intensity (I) of coloration (Streptococcus agalactiae [1]; strain 0008200, 24 h): 0.8
- growth (G), size (Streptococcus agalactiae [1]; [4]): 0.5 mm
- intensity (I) of coloration (Streptococcus agalactiae [1]; strain 0008200, >40 h): 3
- growth (G), size (Streptococcus agalactiae [1]; [5]): 0.5 mm
- intensity (I) of coloration (Streptococcus agalactiae [1]; strain 0008206, 18 h): 0.6
- growth (G), size (Streptococcus agalactiae [1]; [6]): 0.7 mm
- intensity (I) of coloration (Streptococcus agalactiae [1]; strain 0008206, 24 h): 0.8
- growth (G), size (Streptococcus agalactiae [1]; [7]): 0.7 mm
- intensity (I) of coloration (Streptococcus agalactiae [1]; strain 0008206, >40 h): 3
- growth (G), size (Streptococcus agalactiae [1]; [8]): 0.7 mm
- intensity (I) of coloration (Streptococcus agalactiae [1]; strain 0101060, 18 h): 2.7
- growth (G), size (Streptococcus agalactiae [1]; [9]): 0.4 mm
- intensity (I) of coloration (Streptococcus agalactiae [1]; strain 0101060, 24 h): 2.7
- growth (G), size (Streptococcus agalactiae [1]; [10]): 0.4 mm
- intensity (I) of coloration (Streptococcus agalactiae [1]; strain 0101060, >40 h): 4
- growth (G), size (Streptococcus agalactiae [1]; [11]): 0.5 mm
- intensity (I) of coloration (Streptococcus agalactiae [1]; strain 7611003, 18 h): 1
- growth (G), size (Streptococcus agalactiae [1]; [12]): 0.5 mm
- intensity (I) of coloration (Streptococcus agalactiae [1]; strain 7611003, 24 h): 2
- growth (G), size (Streptococcus agalactiae [1]; [13]): 0.7 mm
- intensity (I) of coloration (Streptococcus agalactiae [1]; strain 7611003, >40 h): 3
- growth (G), size (Streptococcus agalactiae [1]; [14]): 0.7 mm
- growth (G), size (Streptococcus agalactiae [1]; [15]): 0.5 mm
- growth (G), size (Streptococcus agalactiae [1]; [16]): 0.5 mm
- intensity (I) of coloration (Streptococcus agalactiae [1]; strain 7701031, >40 h): 2
- growth (G), size (Streptococcus agalactiae [1]; [17]): 0.8 mm
- intensity (I) of coloration (Streptococcus agalactiae [1]; strain 7702055, 18 h): 0.5
- growth (G), size (Streptococcus agalactiae [1]; [18]): 0.5 mm
- intensity (I) of coloration (Streptococcus agalactiae [1]; strain 7702055, 24 h): 0.6
- growth (G), size (Streptococcus agalactiae [1]; [19]): 0.8 mm
- intensity (I) of coloration (Streptococcus agalactiae [1]; strain 7702055, >40 h): 3
- growth (G), size (Streptococcus agalactiae [1]; [20]): 1 mm
- intensity (I) of coloration (Streptococcus agalactiae [1]; strain 8709013, 18 h): 0.5
- growth (G), size (Streptococcus agalactiae [1]; [21]): 0.4 mm
- intensity (I) of coloration (Streptococcus agalactiae [1]; strain 8709013, 24 h): 1.3
- growth (G), size (Streptococcus agalactiae [1]; [22]): 0.5 mm
- intensity (I) of coloration (Streptococcus agalactiae [1]; strain 8709013, >40 h): 2.7
- growth (G), size (Streptococcus agalactiae [1]; [23]): 0.7 mm
- intensity (I) of coloration (Streptococcus agalactiae [1]; strain 8904053, 18 h): 0.6
- growth (G), size (Streptococcus agalactiae [1]; [24]): 0.7 mm
- intensity (I) of coloration (Streptococcus agalactiae [1]; strain 8904053, 24 h): 0.6
- growth (G), size (Streptococcus agalactiae [1]; [25]): 0.7 mm
- intensity (I) of coloration (Streptococcus agalactiae [1]; strain 8904053, >40 h): 3
- growth (G), size (Streptococcus agalactiae [1]; [26]): 0.7 mm
- number of strains detected (Streptococcus agalactiae [2]; [27]): 2/8
- number of strains detected (Streptococcus agalactiae [2]; [28]): 8/8
- number of strains detected (Streptococcus agalactiae [2]; [29]): 7/8
- number of strains detected (Streptococcus agalactiae [2]; [30]): 8/8
- number of strains detected (Streptococcus agalactiae [2]; [31]): 7/8
- number of strains detected (Streptococcus agalactiae [2]; [32]): 8/8
